Data: ChEMBL document CHEMBL1145218, “QSAR study on pK(a) vis-à-vis physiological activity of sulfonamides: a dominating role of surface tension (inverse steric parameter)” (Bioorg Med Chem Lett, 2005)

Assay: pKa value
Assay type: physicochemical
In the case of `O=S(=O)(Nc1ccccc1)c1ccc(Br)cc1`, the pKa is reported as 8.5. With `O=S(=O)(Nc1ccccc1)c1cccc(Br)c1` the pKa was 8.25. For `O=S(=O)(Nc1ccc(F)cc1)c1ccc(Br)cc1`, the pKa was 8.38. Work on `O=S(=O)(Nc1ccccc1)c1ccc(Cl)cc1` yielded a pKa of 8.47. For `Cc1ccc(NS(=O)(=O)c2ccc(Cl)cc2)cc1`, the pKa was 8.78. `Cc1ccc(NS(=O)(=O)c2cccc([N+](=O)[O-])c2)cc1` gave a pKa of 7.8. Compound `O=S(=O)(Nc1ccccc1)c1ccc(F)cc1` has a pKa of 8.9. With `COc1ccc(S(=O)(=O)Nc2cccc([N+](=O)[O-])c2)cc1` the pKa was 8.44. In the case of `Cc1ccc(S(=O)(=O)Nc2cccc([N+](=O)[O-])c2)cc1`, the pKa is reported as 8.27. `O=S(=O)(Nc1ccc(Cl)cc1)c1ccccc1` gave a pKa of 8.75. Work on `Nc1ccc(NS(=O)(=O)c2ccccc2)cc1` yielded a pKa of 10.3. For `Cc1ccc(S(=O)(=O)Nc2ccc(Cl)cc2)cc1`, the pKa was 9.02. `Cc1ccc(NS(=O)(=O)c2ccc(C)cc2)cc1` showed a pKa of 9.65. `COc1ccc(S(=O)(=O)Nc2ccccc2)cc1` showed a pKa of 9.42. With `Cc1ccc(NS(=O)(=O)c2ccc(F)cc2)cc1` the pKa was 9.23. With `Cc1ccc(S(=O)(=O)Nc2ccc(F)cc2)cc1` the pKa was 9.2. Compound `Cc1ccc(S(=O)(=O)Nc2ccccc2)cc1` has a pKa of 9.35. With `O=[N+]([O-])c1cccc(NS(=O)(=O)c2ccc(Cl)cc2)c1` the pKa was 7.51. Compound `COc1ccc(S(=O)(=O)Nc2ccc(Cl)cc2)cc1` has a pKa of 9.19. Work on `O=[N+]([O-])c1cccc(NS(=O)(=O)c2ccc(F)cc2)c1` yielded a pKa of 7.85. Compound `O=[N+]([O-])c1ccc(S(=O)(=O)Nc2ccc(Cl)cc2)cc1` has a pKa of 6.24. Compound `O=S(=O)(Nc1ccc(Cl)cc1)c1ccc(Cl)cc1` has a pKa of 8.3. In the case of `O=S(=O)(Nc1ccc(F)cc1)c1ccc(F)cc1`, the pKa is reported as 8.73. `COc1ccc(S(=O)(=O)Nc2ccc(C)cc2)cc1` gave a pKa of 9.8. Compound `O=S(=O)(Nc1ccc(Cl)cc1)c1ccc(F)cc1` has a pKa of 8.61. For `Nc1ccc(NS(=O)(=O)c2ccc(Cl)cc2)cc1`, the pKa was 9.76. `O=[N+]([O-])c1cccc(S(=O)(=O)Nc2ccc(F)cc2)c1` showed a pKa of 7.27. In the case of `O=S(=O)(Nc1ccc(F)cc1)c1ccc(Cl)cc1`, the pKa is reported as 8.41. In the case of `O=[N+]([O-])c1ccc(S(=O)(=O)Nc2ccc(F)cc2)cc1`, the pKa is reported as 6.45. In the case of `Cc1ccc(NS(=O)(=O)c2ccc([N+](=O)[O-])cc2)cc1`, the pKa is reported as 6.78. `O=[N+]([O-])c1cccc(S(=O)(=O)Nc2ccccc2)c1` gave a pKa of 7.5. `O=S(=O)(Nc1ccc(Cl)cc1)c1ccc(Br)cc1` showed a pKa of 8.24. Work on `Cc1ccc(NS(=O)(=O)c2ccccc2)cc1` yielded a pKa of 9.34. Compound `O=[N+]([O-])c1ccc(S(=O)(=O)Nc2cccc([N+](=O)[O-])c2)cc1` has a pKa of 5.51. Work on `Cc1cccc(S(=O)(=O)Nc2ccc(N)cc2)c1` yielded a pKa of 10.4. In the case of `Cc1ccc(S(=O)(=O)Nc2ccc(N)cc2)cc1`, the pKa is reported as 10.5. In the case of `COc1ccc(S(=O)(=O)Nc2ccc(F)cc2)cc1`, the pKa is reported as 9.32. For `O=[N+]([O-])c1cccc(NS(=O)(=O)c2ccc(Br)cc2)c1`, the pKa was 7.42. Compound `O=S(=O)(Nc1ccc(F)cc1)c1ccccc1` has a pKa of 8.85. `O=[N+]([O-])c1cccc(S(=O)(=O)Nc2ccc(Cl)cc2)c1` gave a pKa of 7.19. For `O=[N+]([O-])c1cccc(NS(=O)(=O)c2ccccc2)c1`, the pKa was 7.93. For `O=S(=O)(Nc1ccccc1)c1ccccc1` [PHENYL(PHENYLSULFONYL)AMINE], the pKa was 9.1.
